Reference: US9237747B2, “Herbicidal compositions comprising 4-amino-3-chloro-5-fluoro-6-(4-chloro-2-fluoro-3-methoxyphenyl) pyridine-2-carboxylic acid or a derivative thereof and insecticides” (priority 2013, dated 2016)
Where two headings read alike, the source gives them in different places.

Experiments:
CYPES = assay type: in vivo, Cyperus esculentus
Procedure: (§1) Seeds or nutlets of the desired test plant species were planted in a soil matrix prepared by mixing a loam or sandy loam soil (e.g., 28.6 percent silt, 18.8 percent clay, and 52.6 percent sand, with a pH of about 5.8 and an organic matter content of about 1.8 percent) and calcareous grit in an 80 to 20 ratio. The soil matrix was contained in plastic pots with a volume of 1 quart and a surface area of 83.6 square centimeters (cm^2). […] The plants were grown for 8-22 days in a greenhouse with an approximate 14 hour (h) photoperiod which was maintained at about 29° C. during the day and 26° C. during the night. Nutrients (Peters Excel® 15-5-15 5-Ca 2-Mg and iron chelate) were applied in the irrigation solution as needed and water was added on a regular basis. Supplemental lighting was provided with overhead metal halide 1000-Watt lamps as necessary. The plants were employed for testing when they reached the first through fourth true leaf stage.
(§2) Treatments consisted of the acid or esters of 4-amino-3-chloro-6-(4-chloro-2-fluoro-3-methoxyphenyl)-5-fluoropyridine-2-carboxylic acid (Compound A), each formulated as an SC (suspension concentrate), and various insecticidal components alone and in combination. Forms of compound A were applied on an acid equivalent basis.
(§3) For treatments comprised of formulated compounds, measured amounts of compounds were placed individually in 25 mL glass vials and diluted in a volume of 1.25% volume per volume (v/v) Agri-Dex® crop oil concentrate to obtain 12× stock solutions. […] Application solutions were prepared by adding an appropriate amount of each stock solution (e.g., 1 mL) and diluted to the appropriate final concentrations with the addition of […] of an aqueous mixture of 1.25% (v/v) crop oil concentrate so that the final spray solutions contained 1.25+/−0.05% (v/v) crop oil concentrate.
(§4) As required, additional water and/or 97:3 v/v acetone/DMSO was added to individual application solutions so that the final acetone and DMSO concentrations of the application solutions being compared were 8.1% and 0.25%, respectively.
(§5) All stock solutions and applications solutions were visually inspected for compound compatibility prior to application. Spray solutions were applied to the plant material with an overhead Mandel track sprayer equipped with 8002E nozzles calibrated to deliver 187 L/ha over an application area of 0.503 square meters (m^2) at a spray height of 18 to 20 inches (46 to 50 cm) above average plant canopy height. Control plants were sprayed in the same manner with the solvent blank.
(§6) The treated plants and control plants were placed in a greenhouse as described above and watered by sub-irrigation to prevent wash-off of the test compounds. After approximately 3 weeks, the condition of the test plants as compared to that of the untreated plants was determined visually and scored on a scale of 0 to 100 percent where 0 corresponds to no injury or growth inhibition and 100 corresponds to complete kill.
(§7) Colby's equation was used to determine the herbicidal effects expected from the mixtures (Colby, S. R. Calculation of the synergistic and antagonistic response of herbicide combinations. Weeds 1967, 15, 20-22.).
(§8) The following equation was used to calculate the expected activity of mixtures containing two active ingredients, A and B: Expected=A+B−(A×B/100)

ECHCG [1] = assay type: in vivo, Echinochloa crus-galli
Procedure: as §1, §2, §3, §4, §5, §6, §7, §8

ECHCO = assay: Postemergence foliar-applied weed control, direct-seeded rice (greenhouse); assay type: in vivo, Echinochloa colonum
Procedure: as §1, §2, §3, §4, §5, §6, §7, §8

IPOHE = assay type: in vivo, Ipomoea hederacea
Procedure: as §1, §2, §3, §4, §5, §6, §7, §8

LEFCH = assay: whole plant or invertebrate; assay type: in vivo, Leptochloa chinensis
Procedure: as §1, §2, §3, §4, §5, §6, §7, §8

CYPRO = assay: In-water applied weed control, transplanted paddy rice (greenhouse); assay type: in vivo, Cyperus rotundus; conditions: 21 DAA
Procedure: (§9) Weed seeds or nutlets of the desired test plant species were planted in puddled soil (mud) prepared by mixing a shredded, non-sterilized mineral soil (50.5 percent silt, 25.5 percent clay, and 24 percent sand, with a pH of about 7.6 and an organic matter content of about 2.9 percent) and water at a 1:1 volumetric ratio. The prepared mud was dispensed in 365 mL aliquots into 16-ounce (oz.) non-perforated plastic pots with a surface area of 86.59 square centimeters (cm^2) leaving a headspace of 3 centimeters (cm) in each pot. Rice seeds were planted in Sun Gro MetroMix® 306 planting mixture, which typically has a pH of 6.0 to 6.8 and an organic matter content of about 30 percent, in plastic plug trays. Seedlings at the second or third leaf stage of growth were transplanted into 860 mL of mud contained in 32-oz. non-perforated plastic pots with a surface area of 86.59 cm^2 4 days prior to herbicide application. The paddy was created by filling the headspace of the pots with 2.5 to 3 cm of water. When required to ensure good germination and healthy plants, a fungicide treatment and/or other chemical or physical treatment was applied. The plants were grown for 4-22 days in a greenhouse with an approximate 14 h photoperiod which was maintained at about 29° C. during the day and about 26° C. during the night. Nutrients were added as Osmocote® (17:6:10, N:P:K+minor nutrients) at 2 grams (g) per 16-oz. pot and 4 g per 32-oz. pot. Water was added on a regular basis to maintain the paddy flood, and supplemental lighting was provided with overhead metal halide 1000-Watt lamps as necessary. The plants were employed for testing when they reached the first through fourth true leaf stage.
Treatments consisted of the acid or esters of 4-amino-3-chloro-5-fluoro-6-(4-chloro-2-fluoro-3-methoxy-phenyl)pyridine-2-carboxylic acid (compound A) each formulated as an SC (suspension concentrate) and various herbicidal components alone and in combination. Forms of compound A were applied on an acid equivalent basis.
Other […] components were applied on an active ingredient basis and consisted of etofenprox (technical grade material) and sulfoxaflor formulated as Sulfoxaflor WG.
(§10) Treatment requirements for each compound or herbicidal component were calculated based upon the rates being tested, the concentration of active ingredient or acid equivalent in the formulation, an application volume of 2 mL per component per pot, and an application area of 86.59 cm^2 per pot.
For formulated compounds, a measured amount was placed in an individual 100 or 200 mL glass vial and was dissolved in a volume of 1.25% (v/v) AgriDex® crop oil concentrate to obtain application solutions.
For technical grade compounds, a weighed amount was placed in an individual 100 to 200 mL glass vial and was dissolved in a volume of acetone to obtain concentrated stock solutions.
Applications were made by injecting with a pipetter appropriate amounts of the application solutions, individually and sequentially, into the aqueous layer of the paddy. Control plants were treated in the same manner with the solvent blank. Applications were made so that all treated plant material received the same concentrations of acetone and crop oil concentrate.
as §6, with “and water was added as needed” for “and watered by sub-irrigation”, “to maintain a paddy flood.” for “to prevent wash-off of the test compounds.”, “3 weeks” for “3 weeks,”, “compared with” for “compared to”
Colby's equation was used to determine the herbicidal effects expected from the mixtures (Colby, S. R. Calculation of the synergistic and antagonistic response of herbicide combinations. Weeds 1967, 15, 20-22.). […]

ECHCG [2] = assay: as above; assay type: in vivo, Echinochloa crus-galli
Procedure: as §9, with “stage. […]” for “stage.”
as §10
For formulated compounds, a measured amount was placed in an individual 100 or 200 mL glass vial and was dissolved in a volume of 1.25% (v/v) AgriDex® crop oil concentrate to obtain application solutions. […]
The treated plants and control plants were placed in a greenhouse as described above and water was added as needed to maintain a paddy flood. After approximately 3 weeks the condition of the test plants as compared with that of the untreated plants was determined visually and scored on a scale of 0 to 100 percent where 0 corresponds to no injury or growth inhibition and 100 corresponds to complete kill. […]

CYPIR = assay type: in vivo, Cyperus iria; conditions: 480 g ai/ha alone
Excerpt: (§11) Seeds or nutlets of the desired test plant species were planted in a soil matrix prepared by mixing a loam or sandy loam soil (e.g., 28.6 percent silt, 18.8 percent clay, and 52.6 percent sand, with a pH of about 5.8 and an organic matter content of about 1.8 percent) and calcareous grit in an 80 to 20 ratio. The soil matrix was contained in plastic pots with a volume of 1 quart and a surface area of 83.6 square centimeters (cm^2). When required to ensure good germination and healthy plants, a fungicide treatment and/or other chemical or physical treatment was applied. The plants were grown for 8-22 days in a greenhouse with an approximate 14 hour (h) photoperiod which was maintained at about 29° C. during the day and 26° C. during the night. Nutrients (Peters Excel® 15-5-15 5-Ca 2-Mg and iron chelate) were applied in the irrigation solution as needed and water was added on a regular basis. Supplemental lighting was provided with overhead metal halide 1000-Watt lamps as necessary. The plants were employed for testing when they reached the first through fourth true leaf stage.
as §2
(§12) Treatment requirements were calculated based upon the rates being tested, the concentration of active ingredient or acid equivalent in the formulation, and a 12 milliliter (mL) application volume at a rate of 187 liters per hectare (L/ha).
as §3, §4, §5, §6, §7, §8

SCPJU = assay: Postemergence foliar-applied weed control, direct-seeded rice (greenhouse); assay type: in vivo, Schoenoplectus juncoides; conditions: 480 g ai/ha alone
Excerpt: as §11, with “Supplemental lighting was provided with overhead metal halide 1000-Watt lamps as necessary. The plants were employed for testing when they reached the first through fourth true leaf stage.” left out
as §12
For treatments comprised of formulated compounds, measured amounts of compounds were placed individually in 25 mL glass vials and diluted in a volume of 1.25% volume per volume (v/v) Agri-Dex® crop oil concentrate to obtain 12× stock solutions. […]

| SMILES | Visual Weed Control (%) - 22 DAA CYPES Obs (CYPES; 75 g ai/ha alone) [%] | Visual Weed Control (%) - 22 DAA CYPES Obs (CYPES; 150 g ai/ha alone) [%] | Visual Weed Control (%) - 22 DAA ECHCG Obs (ECHCG [1]; 75 g ai/ha alone) [%] | Visual Weed Control (%) - 22 DAA ECHCG Obs (ECHCG [1]; 150 g ai/ha alone) [%] | Visual Weed Control (%) - 19 DAA ECHCG Obs (ECHCG [1]; 300 g ai/ha alone) [%] | Visual Weed Control (%) - 19 DAA ECHCO Obs (ECHCO; 300 g ai/ha alone) [%] | Visual Weed Control (%) - 22 DAA IPOHE Obs (IPOHE; 75 g ai/ha alone) [%] | Visual Weed Control (%) - 22 DAA IPOHE Obs (IPOHE; 150 g ai/ha alone) [%] | Visual Weed Control (%) - 19 DAA LEFCH Obs (LEFCH; 300 g ai/ha alone) [%] | pest or weed control at 150 g/ha (LEFCH; Dinebra chinensis, post-emergence, 528 h, 150 g ai/ha alone, read-out: Visual Weed Control (%) - 22 DAA LEFCH Obs) [%] | Visual Weed Control (%) - 21 DAA CYPRO Obs (CYPRO; 75 g ai/ha alone) [%] | Visual Weed Control (%) - 21 DAA CYPRO Obs (CYPRO; 150 g ai/ha alone) [%] | Visual Weed Control (%) - 21 DAA CYPRO Obs (CYPRO; 300 g ai/ha alone) [%] | Visual Weed Control (%) - 21 DAA ECHCG Obs (ECHCG [2]; 75 g ai/ha alone) [%] | Visual Weed Control (%) - 21 DAA ECHCG Obs (ECHCG [2]; 150 g ai/ha alone) [%] | Visual Weed Control (%) - 21 DAA ECHCG Obs (ECHCG [2]; 300 g ai/ha alone) [%] | Visual Weed Control (%) - 22 DAA CYPIR Obs (CYPIR) [%] | Visual Weed Control (%) - 22 DAA ECHCO Obs (ECHCO; 480 g ai/ha alone) [%] | pest or weed control at 480 g/ha (LEFCH; Dinebra chinensis, post-emergence, 528 h, read-out: Visual Weed Control (%) - 22 DAA LEFCH Obs) [%] | Visual Weed Control (%) - 22 DAA SCPJU Obs (SCPJU) [%] |
| --- | --- | --- | --- | --- | --- | --- | --- | --- | --- | --- | --- | --- | --- | --- | --- | --- | --- | --- | --- | --- |
| CCOc1ccc(C(C)(C)COCc2cccc(Oc3ccccc3)c2)cc1 [Etofenprox, 2-(4-ethoxyphenyl)-2-methylpropyl 3-phenoxybenzyl ether] | 0 | 0 | 0 | 0 | 0 | 0 | 0 | 0 | 0 | 0 | 0 | 0 | 0 | 0 | 0 | 0 | – | – | – | – |
| CNC(=O)CSP(=S)(OC)OC [Dimethoate, O,O-dimethyl S-methylcarbamoylmethyl phosphorodithioate] | – | – | – | – | – | – | – | – | – | – | – | – | – | – | – | – | 0 | 10 | 0 | 0 |
